# Laboratory results as given in US20230099344A1, “COMPOUNDS AND METHODS FOR THE TARGETED DEGRADATION OF IRAK-4” (Arvinas Operations, Inc., priority 2021, published 2023).
# Tests used:
# Format in all cases: cell-based
# IRAK-4 [1] = target: T1, IRAK-4 (Homo sapiens, UniProt Q9NWZ3); assay: IRAK-4 ELISA, OCI-Ly10 degradation; design: endogenous in cells; details: treated overnight; for Dmax: OCI-Ly10, OCI-Ly10 cells
# T1 sequence (Q9NWZ3 1-460): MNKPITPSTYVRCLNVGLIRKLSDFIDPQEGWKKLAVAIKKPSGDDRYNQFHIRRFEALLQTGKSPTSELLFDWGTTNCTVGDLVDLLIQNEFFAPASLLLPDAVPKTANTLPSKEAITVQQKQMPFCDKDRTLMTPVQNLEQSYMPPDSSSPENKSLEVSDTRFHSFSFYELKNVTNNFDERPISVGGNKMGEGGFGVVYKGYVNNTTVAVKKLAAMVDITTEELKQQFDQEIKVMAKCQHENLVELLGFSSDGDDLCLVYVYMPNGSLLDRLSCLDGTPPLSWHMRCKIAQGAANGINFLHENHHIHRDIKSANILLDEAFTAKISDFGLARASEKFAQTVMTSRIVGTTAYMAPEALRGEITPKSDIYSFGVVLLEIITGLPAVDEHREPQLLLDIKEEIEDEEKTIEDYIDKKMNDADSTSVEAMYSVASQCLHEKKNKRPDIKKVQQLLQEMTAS
# Procedure: Reagents: Human IRAK-4 Matched Antibody Pair Kit (Abcam ab218182) and ELISA Accessory Pack (Abcam ab210905).
# Cell Treatment and Lysis:
# 1. OCI-Ly10: 200,000 cells are seeded at 1×10^6/ml in 96-well U-bottom plates 200 ul per well, treated with compound the same day. Incubate overnight. 2. PBMC: 800,000 cells are seeded at 2×10^6/ml in 96-well U-bottom deep-well plates, 400 ul per well, treated with compound the same day. Incubate overnight.
# Cell lysate is collected and analyzed by ELISA for IRAK-4 levels.
# IL6 [2] = assay: R848 stimulated IL6 inhibition assay in PBMC; details: PBMC, human PBMCs, R848 stimulation, compound overnight, IL6 by MSD after 24 hrs; for Dmax: Homo sapiens, 24 h, read-out: R848 stim IL6 inhibition Dmax; for IC50: read-out: R848 stim IL6 inhibition IC50
# Procedure, shortened: (§1)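 Primary human PBMCs plated at 2.0×10^6 cells/mL are incubated with compound overnight. Stimulation follows using the donor's EC50 concentration of agonist. MSD detects secreted IL6/IL8 at 24 hrs.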
# IRAK-4 [3] = target: T1, IRAK-4; assay: IRAK-4 ELISA, PBMC degradation; design: endogenous in cells; host or cells: PBMC; details: treated overnight
# Procedure, shortened: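 Steps: seed cells (OCI-Ly10 1×10^6/ml; PBMC 2×10^6/ml); add compound the same day; incubate overnight; lyse; quantify IRAK-4 by matched-pair ELISA.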
# IL6 [4] = assay: LPS stimulated IL6 inhibition assay in PBMC; details: Homo sapiens, PBMC, 24 h, human PBMCs, LPS stimulation, compound overnight, IL6 by MSD after 24 hrs; for Dmax: read-out: LPS Stim IL6 inhibition Dmax; for IC50: read-out: LPS stim IL6 inhibition IC50
# Procedure, shortened: as §1
Compound,Dmax (IRAK-4 [1]) [%],DC50 (IRAK-4 [1]; OCI-Ly10 cells) [nM],further results
O=C1CCC(N2C(=O)c3ccc(CCN4CCC(n5cc6cc(NC(=O)c7cnn8cccnc78)c(OCC7CC7)cc6n5)CC4)cc3C2=O)C(=O)N1 (stereo not drawn) [Example 127],≥ 90,10 to 50,–
"O=C1CCC(N2Cc3cc(N4CCN(CCN5CCC(n6cc7cc(NC(=O)c8cnn9cccnc89)c(OCC8CC8)cc7n6)CC5)CC4)ccc3C2=O)C(=O)N1 (stereo not drawn) [Example 160, N-(6-(cyclopropylmethoxy)-2-(1-(2-(4-(2-(2,6-dioxopiperidin-3-yl)-1-oxoisoindolin-5-yl)piperazin-1-yl)ethyl)piperidin-4-yl)-2H-indazol-5-yl)pyrazolo[1,5-a]pyrimidine-3-carboxamide]",≥ 90,< 10,–
O=C1CCC(N2Cc3cc(N4CCC(CN5CCC(n6cc7cc(NC(=O)c8cnn9cccnc89)c(C8CC8)cc7n6)CC5)CC4)ccc3C2=O)C(=O)N1 (stereo not drawn) [Example 135],80 to 90,< 10,–
CC(C)Oc1cc2c(cc1NC(=O)c1cnn3cccnc13)CN(C1CCN(CCc3ccc4c(c3)C(=O)N(C3CCC(=O)NC3=O)C4=O)CC1)C2=O (stereo not drawn) [Example 7],80 to 90,10 to 50,–
CC(C)Oc1cc2c(cc1NC(=O)c1cnn3cccnc13)CN(C1CCN(CCc3ccc4c(c3)CN(C3CCC(=O)NC3=O)C4=O)CC1)C2=O (stereo not drawn) [Example 8],≥ 90,< 10,–
CC(C)Oc1cc2c(cc1NC(=O)c1cnn3cccnc13)CN(C1CCN(Cc3ccc4c(c3)CN(C3CCC(=O)NC3=O)C4=O)CC1)C2=O (stereo not drawn) [Example 10],–,≥ 100,–
O=C1CCC(N2C(=O)c3ccc(N4CC(COC[C@H](F)Cn5cc6cc(NC(=O)c7cnn8cccnc78)c(OCC7CC7)cc6n5)C4)cc3C2=O)C(=O)N1 (stereo partly drawn) [Example 172],80 to 90,≥ 100,–
O=C1CCC(N2C(=O)c3ccc(CCN4CCC(N5Cc6cc(NC(=O)c7cnn8cccnc78)c(N7CCOCC7)nc6C5=O)CC4)cc3C2=O)C(=O)N1 (stereo not drawn) [Example 405],70 to 80,≥ 100,–
COc1cc2nn(C3CCN(C(C)(C)C4CN(c5ccc6c(c5)C(=O)N(C5CCC(=O)NC5=O)C6=O)C4)CC3)cc2cc1NC(=O)c1cnn2cccnc12 (stereo not drawn) [Example 206],≥ 90,< 10,–
COc1cc2nn(C3CCN(CC4CN(c5ccc6c(c5)C(=O)N(C5CCC(=O)NC5=O)C6=O)C4)CC3)cc2cc1NC(=O)c1cnn2cc(Cl)cnc12 (stereo not drawn) [Example 203],≥ 90,< 10,–
CC(C)Oc1cc2c(cc1NC(=O)c1cnn3cccnc13)CN(C1CCN(C3CN(c4cc5c(cc4F)C(=O)N(C4CCC(=O)NC4=O)C5=O)C3)CC1)C2=O (stereo not drawn) [Example 63],≥ 90,10 to 50,–
COc1cc2nn([C@H]3CC[C@H](N(C)CC#Cc4ccc5c(c4)C(=O)N(C4CCC(=O)NC4=O)C5=O)CC3)cc2cc1NC(=O)c1cnn2cccnc12 (stereo partly drawn) [Example 340],–,10 to 50,OCI-LY10 Dmax (IRAK-4 [1]; OCI-Ly10 cells): A (A represents a Dmax value ≥90)
COc1cc2nn(C3CCN(CC#Cc4ccc5c(c4)C(=O)N(C4CCC(=O)NC4=O)C5=O)CC3)cc2cc1NC(=O)c1cnn2cccnc12 (stereo not drawn) [Example 204],< 70,50 to 100,–
O=C1CCC(N2C(=O)c3ccc(C#CCN4CCC(n5cc6cc(NC(=O)c7cnn8cccnc78)c(OCC7CC7)cc6n5)CC4)cc3C2=O)C(=O)N1 (stereo not drawn) [Example 178],80 to 90,≥ 100,–
O=C1CCC(N2C(=O)c3ccc(OCCOCCN4CCC(n5cc6cc(NC(=O)c7cnn8cc(Cl)cnc78)c(OCC7CC7)cc6n5)CC4)cc3C2=O)C(=O)N1 (stereo not drawn) [Example 120],≥ 90,10 to 50,–
O=C1CCC(N2Cc3cc(N4CC(CN5CCC(N6Cc7cc(NC(=O)c8cnn9cccnc89)c(N8CCOCC8)cc7C6=O)CC5)C4)ccc3C2=O)C(=O)N1 (stereo not drawn) [Example 34],–,≥ 100,–
O=C1CCC(N2C(=O)c3ccc(N4CC(CN5CCC(N6Cc7cc(NC(=O)c8cnn9cccnc89)c(N8CCOCC8)nc7C6=O)CC5)C4)cc3C2=O)C(=O)N1 (stereo not drawn) [Example 406],< 70,50 to 100,–

Compound,Dmax (IRAK-4 [1]) [%],DC50 (IRAK-4 [1]; OCI-Ly10 cells) [nM],further results
COc1cc2nn(C3CCN(CC4CCN(c5ccc(C(=O)NC6CCC(=O)NC6=O)c(F)c5)CC4)CC3)cc2cc1NC(=O)c1cnn2cccnc12 (stereo not drawn) [Example 295],≥ 90,10 to 50,–
COc1cc2nn(C3CCN(CC4CN(c5ccc6c(c5)n(C)c(=O)n6C5CCC(=O)NC5=O)C4)CC3)cc2cc1NC(=O)c1cnn2cccnc12 (stereo not drawn) [Example 380],–,≥ 100,–
COc1cc2nn(C3CCN(CC4CN(c5ccc6c(c5)C(=O)N(C5CCC(=O)NC5=O)C6=O)C4)C3)cc2cc1NC(=O)c1cnn2cccnc12 (stereo not drawn) [Example 209],–,≥ 100,–
O=C1CCC(N2C(=O)c3ccc(CCN4CCC(N5Cc6cc(NC(=O)c7cnn8cccnc78)c(N7CCOCC7)cc6C5=O)CC4)cc3C2=O)C(=O)N1 (stereo not drawn) [Example 37],–,≥ 100,–
COc1cc2nn(C[C@@H](F)COCC3CCN(c4ccc5c(c4)C(=O)N(C4CCC(=O)NC4=O)C5=O)CC3)cc2cc1NC(=O)c1cnn2cccnc12 (stereo partly drawn) [Example 213],< 70,≥ 100,–
COc1cc2nn([C@H]3CCN(CC4CCN(c5ccc6c(c5)C(=O)N(C5CCC(=O)NC5=O)C6=O)CC4)C[C@@H]3F)cc2cc1NC(=O)c1cnn2cccnc12 (stereo partly drawn) [Example 208],≥ 90,10 to 50,–
O=C1CCC(N2C(=O)c3ccc(OCCOCCN4CCC(n5cc6cc(NC(=O)c7cnn8cccnc78)c(OCC7CC7)cc6n5)CC4)cc3C2=O)C(=O)N1 (stereo not drawn) [Example 121],≥ 90,10 to 50,–
COc1cc2nn(C3CCN(CC4CN(c5ccc(C(=O)NC6CCC(=O)NC6=O)c(F)c5)C4)CC3)cc2cc1NC(=O)c1cnn2cccnc12 (stereo not drawn) [Example 294],80 to 90,10 to 50,–
O=C1CCC(N2C(=O)c3ccc(OCCN4CCC(n5cc6cc(NC(=O)c7cnn8cccnc78)c(OCC7CC7)cc6n5)CC4)cc3C2=O)C(=O)N1 (stereo not drawn) [Example 125],70 to 80,10 to 50,–
COc1cc2nn([C@H]3CC[C@@H](OC4CN(c5ccc6c(c5)C(=O)N(C5CCC(=O)NC5=O)C6=O)C4)CC3)cc2cc1NC(=O)c1cnn2cccnc12 (stereo partly drawn) [Example 211],–,≥ 100,–
O=C1CCC(N2C(=O)c3ccc(N4CCC(COC[C@H](F)Cn5cc6cc(NC(=O)c7cnn8cccnc78)c(OCC7CC7)cc6n5)CC4)cc3C2=O)C(=O)N1 (stereo partly drawn) [Example 181],80 to 90,≥ 100,–
O=C1CCC(N2C(=O)c3ccc(N4CC(CN5CCC(n6cc7cc(NC(=O)c8cnn9cccnc89)c(OCC8CC8)cc7n6)CC5)C4)cc3C2=O)C(=O)N1 (stereo not drawn) [Example 162],≥ 90,< 10,–
O=C1CCC(NC(=O)c2ccc(N3CC(CN4CCC(n5cc6cc(NC(=O)c7cnn8cc(Cl)cnc78)c(OCC7CC7)cc6n5)CC4)C3)cc2F)C(=O)N1 (stereo not drawn) [Example 299],≥ 90,10 to 50,–
O=C1CCC(NC(=O)c2ccc(N3CCC(CN4CCC(n5cc6cc(NC(=O)c7cnn8cc(Cl)cnc78)c(OCC7CC7)cc6n5)CC4)CC3)cc2F)C(=O)N1 (stereo not drawn) [Example 289],≥ 90,10 to 50,–
"O=C1CCC(N2Cc3cc(N4CCC(CN5CCC(n6cc7cc(NC(=O)c8cnn9cccnc89)c(OCC8CC8)cc7n6)CC5)CC4)ccc3C2=O)C(=O)N1 (stereo not drawn) [Example 118, N-(6-(cyclopropylmethoxy)-2-(1-((1-(2-(2,6-dioxopiperidin-3-yl)-1-oxoisoindolin-5-yl)piperidin-4-yl)methyl)piperidin-4-yl)-2H-indazol-5-yl)pyrazolo[1,5-a]pyrimidine-3-carboxamide]",≥ 90,< 10,–
CC(C)Oc1cc2c(cc1NC(=O)c1cnn3cc(Cl)cnc13)CN(C1CCN(CC3CCN(c4ccc5c(c4)C(=O)N(C4CCC(=O)NC4=O)C5=O)CC3)CC1)C2=O (stereo not drawn) [Example 43],–,–,Dmax (IL6 [2]): 80 to 90%; IC50 (IL6 [2]): 10 to 50 nM; DC50 (IRAK-4 [3]): 1 to 5 nM; Dmax (IRAK-4 [3]): ≥ 90%; PBMC DC90 (IRAK-4 [3]): B (B represents a DC90 value ≥10.0 nM and <25.0 nM); Dmax (IL6 [4]): < 70%; IC50 (IL6 [4]): < 10 nM
O=C1CCC(N2Cc3ccc(N4CCC(CN5CCC(N6Cc7cc(NC(=O)c8cnn9cccnc89)c(N8CCC(N9CCC9)CC8)cc7C6=O)CC5)CC4)cc3C2=O)C(=O)N1 (stereo not drawn) [Example 49],–,–,Dmax (IL6 [2]): ≥ 90%; IC50 (IL6 [2]): < 10 nM; DC50 (IRAK-4 [3]): < 1 nM; Dmax (IRAK-4 [3]): ≥ 90%; PBMC DC90 (IRAK-4 [3]): A (A represents a DC90 value <10.0 nM); Dmax (IL6 [4]): ≥ 90%; IC50 (IL6 [4]): < 10 nM
